According to US6346514B1, “Pharmaceutical lysine-containing polypeptide compositions and methods of use thereof” (priority 1991, dated 2002):

What was measured:
[1] = test system: trypsinized thymocytes; assay: Restoration of rosette-forming capacity (E-RFC) of trypsinized thymocytes; format: cell-based, guinea-pig; details: concentration 10 microg/ml (most active of 1, 10, 100)
Description: Model: A. This work was designed to study the restoration of superficial receptors on lymphocytes after proteolytic digestion or after severe secondary immunodeficiency. Thymocytes obtained from guinea-pig were trypsinized and then their rosette-forming capacity with rabbit erythrocytes (E-RFC) was evaluated. The cells were incubated with the peptide in concentrations 1, 10 and 100 microg/ml. There were two controls—intact thymocytes (not trypsinized) and trypsinized thymocytes not incubated with the peptide.

[2] = test system: methicillin-resistant S. aureus; assay: Survival of mice inoculated with 10xLD50 S. aureus, HM897 pretreatment with or without Ampicillin; format: in vivo
Description: As in Example 8, animals were inoculated intraperitoneally with 10×LD50 of a methicillin-resistant S. aureus suspended in brain-heart infusion broth containing 5 percent mucin. Different treatments were administered s.c., i.p., or p.o., one hour later and deaths occurring during the subsequent three days were recorded. If significant prevention of mortality (>50 percent survival) was observed, the minimum effective dose (MED) was determined.
Two control experiments were conducted. HM897 was administered as a pretreatment prior to microbial inoculation, and saline was administered i.p. The number of survivors at 72 hours was determined. […] The number of survivors at 72 hours was recorded.
Survival statistics were determined over the periods of 12, 24, 36, 48, and 72 hours. […] Survival statistics were determined over periods of 12, […], 36, 48, and 72 hours. The method of conducting the experiment is illustrated in FIG. 5.

[3] = test system: lymphoid cells differentiation; assay: Effects in thymectomized guinea pigs; format: in vivo; details: thymectomized animals; 1 microg per kg i.m. daily for 10 days; 15th day
Description: Model: Thymectomy (removal of thymus): 30 mongrel male guinea pigs. Treatment: i.m. single daily 1 microg HM897 per kg for 10 days. Treatment of controls: normal saline 0.5 ml i.m. single daily for 10 days (there were two controls—thymectomized and sham-operated). Parameters were determined on the 15th day after onset of the treatment. Tested parameters: clinical blood examination, “active” T-lymphocytes and total T-lymphocytes (E-RFC), B-lymphocytes (EAC-RFC) were measured in blood, thymus, lymph nodes, spleen and red bone marrow.

[4] = 12 HOURS after inoculation, HM897 10 mcg/kg
[5] = 12 HOURS after inoculation, HM897 100 mcg/kg
[6] = 12 HOURS after inoculation, HM897 1000 mcg/kg
[7] = 24 HOURS after inoculation, HM897 10 mcg/kg
[8] = 24 HOURS after inoculation, HM897 100 mcg/kg
[9] = 24 HOURS after inoculation, HM897 1000 mcg/kg
[10] = 36 HOURS after inoculation, HM897 10 mcg/kg
[11] = 36 HOURS after inoculation, HM897 100 mcg/kg
[12] = 36 HOURS after inoculation, HM897 1000 mcg/kg
[13] = 48 HOURS after inoculation, HM897 10 mcg/kg
[14] = 48 HOURS after inoculation, HM897 100 mcg/kg
[15] = 48 HOURS after inoculation, HM897 1000 mcg/kg
[16] = 72 HOURS after inoculation, HM897 10 mcg/kg
[17] = 72 HOURS after inoculation, HM897 100 mcg/kg
[18] = 72 HOURS after inoculation, HM897 1000 mcg/kg

Substance: Thr-Ala-Glu-Glu-Lys (TAEEK) [HM897]
- biological activity (percentage of rosette-forming capacity restoration) [1]: 78/9
- Deaths [2, 4]: 0
- Survival [2, 4]: 100.00%
- Survivors [2, 4]: 18
- Deaths [2, 5]: 0
- Survival [2, 5]: 100.00%
- Survivors [2, 5]: 18
- Deaths [2, 6]: 1
- Survival [2, 6]: 94.44%
- Survivors [2, 6]: 17
- Deaths [2, 7]: 5
- Survival [2, 7]: 72.22%
- Survivors [2, 7]: 13
- Deaths [2, 8]: 3
- Survival [2, 8]: 83.33%
- Survivors [2, 8]: 15
- Deaths [2, 9]: 2
- Survival [2, 9]: 88.89%
- Survivors [2, 9]: 16
- Deaths [2, 10]: 12
- Survival [2, 10]: 33.33%
- Survivors [2, 10]: 6
- Deaths [2, 11]: 8
- Survival [2, 11]: 55.56%
- Survivors [2, 11]: 10
- Deaths [2, 12]: 7
- Survival [2, 12]: 61.11%
- Survivors [2, 12]: 11
- Deaths [2, 13]: 14
- Survival [2, 13]: 22.22%
- Survivors [2, 13]: 4
- Deaths [2, 14]: 12
- Survival [2, 14]: 33.33%
- Survivors [2, 14]: 6
- Deaths [2, 15]: 11
- Survival [2, 15]: 38.89%
- Survivors [2, 15]: 7
- Deaths [2, 16]: 14
- Survival [2, 16]: 22.22%
- Survivors [2, 16]: 4
- Deaths [2, 17]: 12
- Survival [2, 17]: 33.33%
- Survivors [2, 17]: 6
- Deaths [2, 18]: 11
- Survival [2, 18]: 38.89%
- Survivors [2, 18]: 7
- survival after normally lethal i.p. dose of S. aureus ([2]; HM897 pretreatment): dramatic improvement in survival
- Survival ([2]; at 36 hours, across HM897 dose groups): ≤ 61%
- Survival ([2]; by 72 hours, across HM897 dose groups): 22-39%
- lymphoid cells differentiation [3]: does not stimulate lymphoid cells differentiation
